Measured values reported in ChEMBL document CHEMBL1201862, “PubChem BioAssay data set” (2004).
Blank lines part the entries; values can stand above or below the compound they belong to. The source made the active and inactive calls.

Tests used:
Protein skinhead-1 = molecular target: T1, Protein skinhead-1 (Caenorhabditis elegans, UniProt P34707); type: functional
T1 sequence (P34707 whole entry): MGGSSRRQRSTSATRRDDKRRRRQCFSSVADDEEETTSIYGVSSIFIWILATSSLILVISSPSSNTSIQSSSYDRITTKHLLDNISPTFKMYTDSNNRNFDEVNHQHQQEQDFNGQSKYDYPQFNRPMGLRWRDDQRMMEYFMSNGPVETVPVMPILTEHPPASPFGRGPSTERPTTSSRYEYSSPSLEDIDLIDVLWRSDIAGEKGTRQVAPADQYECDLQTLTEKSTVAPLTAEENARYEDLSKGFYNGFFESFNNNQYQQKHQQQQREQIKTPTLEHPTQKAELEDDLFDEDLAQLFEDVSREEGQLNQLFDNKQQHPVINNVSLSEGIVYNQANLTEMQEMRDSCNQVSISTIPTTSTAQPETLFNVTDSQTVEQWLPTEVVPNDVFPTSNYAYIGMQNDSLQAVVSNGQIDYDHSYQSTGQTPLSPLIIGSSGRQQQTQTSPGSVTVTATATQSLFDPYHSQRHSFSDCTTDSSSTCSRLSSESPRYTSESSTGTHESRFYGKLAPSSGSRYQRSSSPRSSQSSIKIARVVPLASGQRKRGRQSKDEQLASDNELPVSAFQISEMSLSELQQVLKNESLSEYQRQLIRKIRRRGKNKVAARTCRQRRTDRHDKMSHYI

[1] = molecular target: T2, Polyadenylate-binding protein 1 (Homo sapiens, UniProt P11940); experiment: PABP1 MLLE–PAM2 interaction inhibitors, dose response, miRNA deadenylation inhibitor project, biochemical, fluorescence polarization, Cy5-PAM2 peptide, secondary (AID 602260); type: functional; details: read-out: IC50_Mean
[2] = molecular target: T2, Polyadenylate-binding protein 1; experiment: PABP1 MLLE–PAM2 binding inhibitor potency, dose response, biochemical, fluorescence polarization, FITC-PAM2 peptide (AID 602259); type: functional; details: read-out: IC50_Mean
[3] = molecular target: T3, Heat shock factor protein 1 (Mus musculus, UniProt P38532); experiment: HSF1 potentiators in luciferase reporter cells, confirmation, cell-based, NIH3T3, luminescence, dose retest (AID 435004); type: functional;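 also: stress induced by proteasome inhibitor MG132 added 30 min after compound; luciferase reporter driven by HSF1 response element in NIH3T3 cells; actives raise luminescence as potentiators of the MG132 stress response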
T3 sequence (P38532 whole entry): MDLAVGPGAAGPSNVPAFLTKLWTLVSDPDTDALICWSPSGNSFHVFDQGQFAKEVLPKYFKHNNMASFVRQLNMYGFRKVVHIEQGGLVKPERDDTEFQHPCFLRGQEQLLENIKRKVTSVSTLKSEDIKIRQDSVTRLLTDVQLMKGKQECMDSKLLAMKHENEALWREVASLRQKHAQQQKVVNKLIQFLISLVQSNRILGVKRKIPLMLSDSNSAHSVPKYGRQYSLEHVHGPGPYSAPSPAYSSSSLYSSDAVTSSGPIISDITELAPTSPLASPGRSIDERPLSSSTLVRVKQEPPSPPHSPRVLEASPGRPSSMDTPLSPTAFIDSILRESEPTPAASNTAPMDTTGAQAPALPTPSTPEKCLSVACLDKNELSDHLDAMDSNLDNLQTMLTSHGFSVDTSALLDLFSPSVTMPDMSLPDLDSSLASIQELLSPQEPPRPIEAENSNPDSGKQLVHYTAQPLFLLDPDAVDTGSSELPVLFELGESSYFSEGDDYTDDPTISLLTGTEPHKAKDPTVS

[4] = NIH-3T3 fibroblast cytotoxicity, dose response, cytotoxicity control, cell-based, fluorescence, Alamar Blue, secondary assay (AID 2327); type: functional;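 also: NIH-3T3 mouse fibroblasts cultured with fluconazole at 8 µg/mL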
[5] = C. albicans growth with fluconazole, confirmation, fluorescence, retest (AID 2467); type: functional, cell-based
[6] = molecular target: T4, Rac GTPase-activating protein 1 (Homo sapiens, UniProt Q9H0H5); experiment: MgcRacGAP GTPase-activating activity inhibitors, confirmation, biochemical, ADP Hunter fluorescence, primary and confirmatory (AID 624330); type: functional
T4 sequence (Q9H0H5 whole entry): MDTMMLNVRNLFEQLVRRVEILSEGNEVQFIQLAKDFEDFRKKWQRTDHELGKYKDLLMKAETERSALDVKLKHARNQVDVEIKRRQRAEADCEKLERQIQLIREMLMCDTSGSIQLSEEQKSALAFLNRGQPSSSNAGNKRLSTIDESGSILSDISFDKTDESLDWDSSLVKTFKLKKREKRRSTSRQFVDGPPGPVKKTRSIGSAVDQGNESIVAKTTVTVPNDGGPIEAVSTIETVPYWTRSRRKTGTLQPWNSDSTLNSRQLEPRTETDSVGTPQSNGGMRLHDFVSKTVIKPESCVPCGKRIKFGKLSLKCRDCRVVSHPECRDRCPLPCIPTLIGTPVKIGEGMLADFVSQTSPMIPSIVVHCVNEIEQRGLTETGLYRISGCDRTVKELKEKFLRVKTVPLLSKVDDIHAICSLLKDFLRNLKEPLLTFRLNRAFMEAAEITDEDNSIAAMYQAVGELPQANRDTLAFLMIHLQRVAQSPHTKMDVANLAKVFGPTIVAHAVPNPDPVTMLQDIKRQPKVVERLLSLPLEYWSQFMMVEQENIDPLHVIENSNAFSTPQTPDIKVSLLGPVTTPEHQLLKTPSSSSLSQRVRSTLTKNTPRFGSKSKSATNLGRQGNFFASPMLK

Large T antigen = Large T antigen (Simian virus 40, UniProt P03070); type: functional, Betapolyomavirus macacae;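 also: Confirmatory-stage PubChem screen for compounds that inhibit SV40 T antigen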
cells [7] = type: functional, cell-based
cells [8] = type: functional, cell-based; remark: listed apart in the source
[9] = HEp-2 cell cytotoxicity, dose response, cytotoxicity control for RSV inhibitor project, HTS (AID 2410); type: functional; details: human respiratory syncytial virus
INS1 = experiment: beta cell apoptosis inhibitors, cytokine rescue, dose response, luminescence, retest (AID 449756); type: functional, cell-based; details: Rattus norvegicus, INS1;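 also: cell death triggered by IL-1 beta plus TNF-alpha plus IFN-gamma mixture; protective hits raise ATP signal compared with cytokine alone wells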
[10] = molecular target: T5, Corticotropin-releasing factor receptor 2/Corticotropin-releasing factor-binding protein (Homo sapiens, UniProt P24387+Q13324); experiment: Dose Response confirmation of uHTS hits for small molecule antagonists of the CRF-binding protein and CRF-R2 receptor complex.; type: functional; details: read-out: IC50_Mean
T5 sequence (Q13324 whole entry): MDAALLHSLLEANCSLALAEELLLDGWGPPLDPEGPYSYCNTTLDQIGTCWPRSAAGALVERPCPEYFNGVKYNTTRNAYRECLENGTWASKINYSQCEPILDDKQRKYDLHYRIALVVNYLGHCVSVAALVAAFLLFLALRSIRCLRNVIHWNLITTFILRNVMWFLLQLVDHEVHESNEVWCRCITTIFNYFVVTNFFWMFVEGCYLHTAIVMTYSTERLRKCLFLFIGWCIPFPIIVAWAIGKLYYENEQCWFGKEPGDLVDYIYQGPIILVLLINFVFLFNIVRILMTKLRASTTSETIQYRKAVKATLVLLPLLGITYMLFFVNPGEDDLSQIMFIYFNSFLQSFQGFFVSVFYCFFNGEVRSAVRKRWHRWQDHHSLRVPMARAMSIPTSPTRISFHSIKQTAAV
T5 sequence (P24387 whole entry): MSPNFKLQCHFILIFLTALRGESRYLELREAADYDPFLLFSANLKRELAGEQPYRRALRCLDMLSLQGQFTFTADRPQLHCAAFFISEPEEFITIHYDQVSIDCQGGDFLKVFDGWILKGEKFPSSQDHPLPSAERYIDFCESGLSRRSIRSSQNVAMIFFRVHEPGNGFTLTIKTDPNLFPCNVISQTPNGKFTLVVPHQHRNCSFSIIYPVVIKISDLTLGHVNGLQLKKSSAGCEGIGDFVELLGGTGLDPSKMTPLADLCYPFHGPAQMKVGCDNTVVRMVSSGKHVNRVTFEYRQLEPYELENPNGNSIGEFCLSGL

[11] = molecular target: T5, Corticotropin-releasing factor receptor 2/Corticotropin-releasing factor-binding protein; experiment: activators of CRF receptor 2 with binding protein – uHTS hits, confirmation (AID 602473); type: functional; details: read-out: EC50_Mean

Sequence of Large T antigen (P03070 whole entry): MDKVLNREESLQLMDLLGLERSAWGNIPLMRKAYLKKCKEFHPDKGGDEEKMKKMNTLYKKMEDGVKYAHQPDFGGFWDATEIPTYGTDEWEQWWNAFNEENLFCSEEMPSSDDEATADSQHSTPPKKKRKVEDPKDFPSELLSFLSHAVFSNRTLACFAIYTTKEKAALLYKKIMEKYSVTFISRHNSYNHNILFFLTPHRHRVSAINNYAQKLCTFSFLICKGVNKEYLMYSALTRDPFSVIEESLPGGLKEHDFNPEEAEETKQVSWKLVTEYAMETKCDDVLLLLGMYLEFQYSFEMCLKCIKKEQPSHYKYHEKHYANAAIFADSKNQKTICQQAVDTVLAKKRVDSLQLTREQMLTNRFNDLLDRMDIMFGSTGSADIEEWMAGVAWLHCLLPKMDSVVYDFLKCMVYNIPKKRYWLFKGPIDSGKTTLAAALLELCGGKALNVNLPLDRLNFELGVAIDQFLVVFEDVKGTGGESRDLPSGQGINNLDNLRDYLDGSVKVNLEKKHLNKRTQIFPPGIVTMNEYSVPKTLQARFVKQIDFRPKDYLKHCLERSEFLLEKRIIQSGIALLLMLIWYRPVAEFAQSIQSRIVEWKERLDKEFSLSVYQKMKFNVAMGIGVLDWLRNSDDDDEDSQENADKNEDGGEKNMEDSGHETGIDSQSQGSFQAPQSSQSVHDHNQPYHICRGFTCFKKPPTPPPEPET
T2 sequence (P11940 whole entry): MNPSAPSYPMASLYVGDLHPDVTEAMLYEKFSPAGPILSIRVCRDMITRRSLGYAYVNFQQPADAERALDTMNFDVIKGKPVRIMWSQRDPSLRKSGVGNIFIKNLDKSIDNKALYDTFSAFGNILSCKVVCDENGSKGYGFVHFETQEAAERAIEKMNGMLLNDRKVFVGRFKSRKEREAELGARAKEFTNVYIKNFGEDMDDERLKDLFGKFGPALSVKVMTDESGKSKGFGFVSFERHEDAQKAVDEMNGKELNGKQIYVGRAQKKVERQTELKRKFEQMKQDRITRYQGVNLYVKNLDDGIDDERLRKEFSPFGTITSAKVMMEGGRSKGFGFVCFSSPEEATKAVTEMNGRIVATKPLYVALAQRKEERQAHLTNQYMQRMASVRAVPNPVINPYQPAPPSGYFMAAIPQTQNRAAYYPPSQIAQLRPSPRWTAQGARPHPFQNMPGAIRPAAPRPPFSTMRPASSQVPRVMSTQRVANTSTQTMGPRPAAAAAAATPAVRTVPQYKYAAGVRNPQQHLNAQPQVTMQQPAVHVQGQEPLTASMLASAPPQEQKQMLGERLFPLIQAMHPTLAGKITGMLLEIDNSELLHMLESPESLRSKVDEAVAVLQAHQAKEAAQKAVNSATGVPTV

SMILES: CCNC(=O)c1sc(=S)n(-c2ccc(C)cc2)c1N
IC50 [1]: > 66 µM (inactive) | IC50 [2]: > 66 µM (inactive)

SMILES: O=C(COc1ccc2c(c1)CCC2)N1CCN(c2cccc(C(F)(F)F)c2)CC1
EC50 [4]: > 160 µM (inactive) | EC50 [5]: > 38 µM (not active)

SMILES: O=C(C1=C(O)C(=O)N(Cc2cccnc2)C1c1cccc(O)c1)c1ccc2c(c1)OCCO2 (stereo not given)
EC50 [3]: > 260 µM (inactive)

SMILES: COc1cc(C2Nc3ccc4ncccc4c3C3=C2C(=O)CCC3)cc(OC)c1OC (stereo not given)
EC50 [3]: 29.3 µM (active)

SMILES: Cc1c(NC(=S)NC(=O)c2cc3ccccc3o2)cccc1C(=O)O
IC50 [1]: > 66 µM (inactive) | IC50 [2]: > 66 µM (inactive)

SMILES: O=S1(=O)N=C(Nc2ccc(N3CCOCC3)cc2)c2ccccc21
EC50 [4]: > 160 µM (inactive) | EC50 [5]: > 38 µM (not active)

SMILES: C#CCNC(=O)C1=C[C@@H](c2cn(C(C)=O)c3ccccc23)C[C@@H](OCCCCO)O1
IC50 (Protein skinhead-1): > 100 µM (inactive)

SMILES: COc1ccc(NC(=S)c2ccc(N(C)C)cc2)cc1
EC50 (cells [7]): > 350 µM (not active) | EC50 (cells [8]): 145 µM (active) | EC50 [3]: > 260 µM (inactive)

SMILES: CN(C)c1ccc(-c2nc3cnccn3c2Nc2ccc3c(c2)OCCO3)cc1
IC50 (Large T antigen): 12 µM (active)

SMILES: COc1ccc(/C=C2/SC(=O)N(CCNC(=O)C3COc4ccccc4O3)C2=O)cc1 (stereo not given)
EC50 [3]: > 260 µM (inactive)

SMILES: Cc1oc(-c2ccoc2)nc1CN(CC1CCC(=O)N1)C(C)C (stereo not given)
EC50 [3]: > 260 µM (inactive)

SMILES: O=C(Nc1ccc(N=Nc2ccccc2)c(NC(=O)C2CCCO2)c1)C1CCCO1 (stereo not given)
EC50 [4]: > 160 µM (inactive) | EC50 [5]: > 38 µM (not active)

SMILES: O=C(c1ccc(S(=O)(=O)NCc2ccco2)cc1)N1CCN(c2ccc(F)cc2)CC1
IC50 (Protein skinhead-1): > 100 µM (inactive)

SMILES: COc1ccc2ccc(O)c(CN3CC=C(c4ccccc4)CC3)c2c1
EC50 [3]: 34.6 µM (active)

SMILES: COc1ccc(Cl)cc1NC(=O)CN(C(=O)c1ccco1)C1CCCCC1
IC50 [1]: > 66 µM (inactive) | IC50 [2]: > 66 µM (inactive)

SMILES: CC1=NN(c2ccccc2)C(=O)/C1=C\C=C1\N(C)c2ccccc2C1(C)C
IC50 (Protein skinhead-1): 42.5 µM (active)

SMILES: COC(=O)/C=C1\SC(NC(=O)c2ccc(C)cc2)=NC1=O
IC50 [1]: > 66 µM (inactive) | IC50 [2]: > 66 µM (inactive)

SMILES: Cc1ccc(-[n+]2c(-c3ccccc3)cn3c2CCC3)cc1
AC50 (INS1): 2.83 µM (active) | EC50 [4]: > 150 µM (inconclusive) | EC50 [5]: > 38 µM (not active)

SMILES: O=c1cc(-c2ccc(F)cc2)oc2ccccc12
IC50 [10]: > 47.1 µM (inactive) | IC50 (Protein skinhead-1): 16.2 µM (active) | EC50 [11]: > 53 µM (inactive)

Continued, in another order:

IC50 (Protein skinhead-1): > 100 µM (inactive)
SMILES: CS(=O)(=O)N1N=C(c2cccs2)CC1c1ccccc1O (stereo not given)

EC50 [3]: > 260 µM (inactive)
SMILES: CCN(CC)S(=O)(=O)c1ccc(N2CCOCC2)c(NC(=O)c2cc3ccccc3oc2=O)c1

IC50 [6]: 75 µM (active) | IC50 (Large T antigen): 11.3 µM (active)
SMILES: O=C(C[n+]1ccccc1)NN=Cc1ccc(O)cc1

IC50 (Protein skinhead-1): 23.7 µM (active)
SMILES: C=CCNc1nc(-c2ccc([N+](=O)[O-])cc2)cs1

IC50 [1]: > 66 µM (inactive) | IC50 [2]: > 66 µM (inactive)
SMILES: CCN1C(=O)/C(=C2\Sc3ccccc3N2CC)OC1=S

EC50 [3]: 236 µM (active)
SMILES: S=C1N=C(c2ccccc2)NCN1c1ccc(Br)cc1

IC50 (Large T antigen): 58.2 µM (active)
SMILES: Cc1c(C(=O)Oc2ccc(-c3cnc4ccccc4n3)cc2)cccc1[N+](=O)[O-]

IC50 (Protein skinhead-1): > 100 µM (inactive)
SMILES: O=C(Nc1ccc2oc(-c3cccnc3)nc2c1)c1ccc(Br)o1

EC50 [3]: > 260 µM (inactive)
SMILES: NC(=Nc1ccccc1C(F)(F)F)Nc1nc(O)c2c(n1)CCC2
CC50 [9]: 46.9 µM (active)

IC50 [1]: > 66 µM (inactive) | IC50 [2]: > 66 µM (inactive)
SMILES: CCOc1ccc2c(c1)n([O-])c1c([n+]2=O)CCCC1

EC50 [3]: > 260 µM (inactive)
SMILES: CNc1nc(-c2ccccc2)cc(C)c1S(C)(=O)=O

IC50 [1]: > 66 µM (inactive) | IC50 [2]: > 66 µM (inactive)
SMILES: O=Cc1ccc(OC(=O)c2cc(Cl)nc3ccccc23)cc1

IC50 (Protein skinhead-1): > 100 µM (inactive)
SMILES: COc1ccc(S(=O)(=O)Nc2ccc(S(=O)(=O)Nc3ccc(F)cc3)cc2)cc1C

IC50 [1]: > 66 µM (inactive) | IC50 [2]: > 66 µM (inactive)
SMILES: Cc1ccc(CNC(=O)CSc2nccn(-c3ccc(C)c(F)c3)c2=O)cc1

EC50 [3]: > 260 µM (inactive)
SMILES: CC1CC2(CCCCC2)Nc2ccc3ccccc3c21 (stereo not given)

IC50 [1]: > 66 µM (inactive) | IC50 [2]: > 66 µM (inactive)
SMILES: Cn1nnc(NC(=S)NC(=O)c2ccc3ccccc3c2)n1

IC50 (Protein skinhead-1): > 100 µM (inactive)
SMILES: CC(=O)O[C@H]1[C@@H](O)[C@H](O)[C@H](Oc2c(O)c(C)c3c4c2[C@@H](C)CC[C@@H]4[C@@H](C)C[C@@H]3C=C(C)C)O[C@H]1C

IC50 [6]: 42 µM (active) | IC50 (Large T antigen): 21.7 µM (active)
SMILES: Oc1ccc(/N=C/c2cc(Br)c(N3CCOCC3)o2)cc1

IC50 [6]: 28.8 µM (active) | IC50 (Large T antigen): 25.5 µM (active)
SMILES: Cc1cs/c(=N\N=C\c2ccc(O)cc2)n1Cc1ccco1
